In ChEMBL document CHEMBL4196096, “Reviewing Hit Discovery Literature for Difficult Targets: Glutathione Transferase Omega-1 as an Example” (J Med Chem, 2018):
Blank lines part the entries; values can stand above or below the compound they belong to.

Legend:
[1] = molecular target: T1, Glutathione S-transferase omega-1 (Homo sapiens, UniProt P78417); test: Inhibition of human GSTO1-1 by MMA (V) reductase assay
T1 sequence (P78417 whole entry): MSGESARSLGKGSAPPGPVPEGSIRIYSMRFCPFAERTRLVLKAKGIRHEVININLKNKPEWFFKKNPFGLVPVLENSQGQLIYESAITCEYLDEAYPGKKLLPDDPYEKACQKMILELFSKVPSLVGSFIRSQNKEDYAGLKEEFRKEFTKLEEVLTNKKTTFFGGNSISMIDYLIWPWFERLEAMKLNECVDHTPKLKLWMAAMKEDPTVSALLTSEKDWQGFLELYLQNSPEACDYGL

[2] = molecular target: T1, Glutathione S-transferase omega-1; test: Inhibition of GSTO1-1 (unknown origin) by enzymatic assay
[3] = molecular target: Glutathione S-transferase omega-1 (Homo sapiens) (UniProt P78417); test: Inhibition of human GSTO1-1 expressed in HEK293 cells by CDNB-GSH conjugation assay
[4] = molecular target: Glutathione S-transferase P (Homo sapiens, UniProt P09211); test: Inhibition of human GSTP1-1
Chain of Glutathione S-transferase P (P09211 whole entry): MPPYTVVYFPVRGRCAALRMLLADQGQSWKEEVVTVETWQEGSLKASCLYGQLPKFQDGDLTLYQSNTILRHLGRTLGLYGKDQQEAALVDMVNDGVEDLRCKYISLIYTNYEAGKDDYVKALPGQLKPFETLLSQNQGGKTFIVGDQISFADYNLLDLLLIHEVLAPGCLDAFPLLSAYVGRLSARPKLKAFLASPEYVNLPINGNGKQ

[5] = molecular target: T1, Glutathione S-transferase omega-1; test: Inhibition of GSTO1-1 (unknown origin) pre-incubated for 1 hr before GSH addition by CDNB-GSH conjugation assay
[6] = molecular target: T1, Glutathione S-transferase omega-1; test: Inhibition of GSTO1-1 (unknown origin) by 4-NPG substrate based assay

- IC50 [1]: 1020 µM
Compound: C[C@H](CCC(=O)O)[C@H]1CC[C@H]2[C@@H]3CC[C@@H]4C[C@H](O)CC[C@]4(C)[C@H]3C[C@H](O)[C@]12C

- IC50 [2]: < 0.4 µM
Compound: CCN(CC)C(=O)SSC(=O)N(CC)CC

- IC50 [3]: 0.0512 µM
Compound: CC(=O)Oc1ccc2c(c1)Oc1cc(OC(C)=O)ccc1C21OC(=O)c2cc(CCl)ccc21

- IC50 [1]: 4 µM
Compound: Cc1c(C)c2c(c(C)c1OC(=O)CCC(=O)O)CC[C@@](C)(CCC[C@H](C)CCC[C@H](C)CCCC(C)C)O2 [(+)-ALPHA-TOCOPHERYL SUCCINATE]

- IC50 [4]: 0.5 µM
Compound: Cc1c(C)c2c(c(C)c1O)CC[C@@](C)(CCC[C@H](C)CCC[C@H](C)CCCC(C)C)O2 [ALPHA-TOCOPHEROL]

- IC50 [5]: 0.15 µM
Compound: CC(C)C[C@H](NC(=O)[C@H](CCc1ccccc1)NC(=O)CN1CCOCC1)C(=O)N[C@@H](Cc1ccccc1)C(=O)N[C@@H](CC(C)C)C(=O)[C@@]1(C)CO1 [CARFILZOMIB]

Compound: CC(C)c1cc2c(c(O)c1O)[C@@]1(C(=O)O)CCCC(C)(C)[C@@H]1CC2 [CARNOSIC ACID]
- IC50 [6]: 62 µM

Compound: O=[N+]([O-])c1ccc(Cl)c([N+](=O)[O-])c1 [DINITROCHLOROBENZENE]
- IC50 [1]: 900 µM

- IC50 [1]: 25 µM
Compound: C=C(CC)C(=O)c1ccc(OCC(=O)O)c(Cl)c1Cl [ETHACRYNIC ACID]

- IC50 [6]: 1.6 µM
Compound: O=C1C=CC(O)(c2cc(=O)c3c(O)cc(O)cc3o2)C=C1 [PROTOAPIGENONE]
